Experiment: compounds inducing NF-kB luciferase expression – cell-based, SH-SY5Y, dose response (AID 1241)
Conditions: SH-SY5Y NF-kB promoter luciferase reporter, fold induction

| Structure (SMILES) | EC50 [µM] |
| --- | --- |
| COc1cccc(C(=O)/C=C/Nc2cccc(O)c2)c1 | 1.29 |
| NC(=O)c1ccccc1N/C=C/C(=O)c1ccc(Cl)cc1 | 5.14 |
| Fc1ccccc1N1CCN(c2cnc3ccccc3n2)CC1 | 3.33 |
| COc1ccc(-c2cc(=O)c3cc(O)ccc3o2)cc1 | 6.99 |
| CC(=O)c1ccc(Nc2ccc(-c3ccccc3F)nn2)cc1 | 0.838 |
| O=C(Nc1ccc2c(c1)OCO2)c1ccc(Cl)s1 | 1.8 |
| Cc1ccc2nc(/C=C/c3cccc(F)c3)ccc2c1 | 3.07 |
| CC(C)Oc1cc(O)c2c(=O)c(-c3ccc(O)cc3)coc2c1 | 4.52 |
| COc1cc2c(cc1NC(=O)C1CCCO1)oc1ccccc12 (stereo unspecified) | 5.78 |
| CC(C)c1cc(C(=O)Nc2cccc(Cl)c2)no1 | 2.42 |
| Clc1ccccc1-c1nnc(-c2ccc3c(c2)OCO3)o1 | 1.41 |
| Cc1ccc(-c2nc(-c3cccnc3)no2)cc1 | 1.32 |
| CCCc1cc(C(=O)Nc2nccs2)cs1 | 2.62 |
| S=C(c1ccc(-c2ccc(Cl)c(Cl)c2)o1)N1CCOCC1 | 5.19 |
| COc1ccc2nc(NC(=S)N(C)C)sc2c1 | 24.8 |
| CN=c1scc(C)n1/N=C/c1ccc2c(c1)OCO2 | 0.129 |
